Laboratory results: patent US20060199172A1, “Laminated cell culture containing hepatocytes and method for detecting endocrine-like substance” (FUJI PHOTO FILM CO., LTD., priority 2005, published 2006)

Tests used:
rat primary hepatocytes = test: AST release into the medium from cultured hepatocytes after adding the substance; format: cell-based; settings: 0.1 μg/ml, measured over time
Protocol: Rat primary hepatocytes (collected by the method described in “Techniques of Tissue Culture, Second edition”, Ed. by Japan Tissue Culture Association, Asakura Publishing, p. 135) were inoculated on a 12-well microplate (FALCON, No. 3505) in an amount of 50000 cells/well and cultured for 24 hours under the conditions of 37° C. and 5% CO2. Separately, the carrier for cell culture prepared in Example 1 was adhered to bottom of a 20-mm petri dish (FALCON, No. 2163) with a small amount of sterilized water. 20,000 cells of rat vascular endothelial cells A-10 (Dainippon Pharmaceutical Co., Ltd.) were inoculated on the carrier for cell culture and cultured for 72 hours under the conditions of 37° C. and 5% CO2. As the medium, 10% FBS Eagle's MEM medium (GIBCO) was used for both cultures. The rat vascular endothelial cell culture obtained was carefully placed on the aforementioned rat primary hepatocytes on the 12-well microplate so that the cell growing side contacted with the rat primary hepatocytes, and cultured for 24 hours under the conditions of 37° C. and 5% CO2. […]
The laminated cell culture prepared in Example 2 and the hepatocytes cultured as monolayer culture was added with 0.1 μg/ml of chloropramazine, and the amount of AST released into the medium was measured over time.

MCF-7 cells = test: Detection of endocrine-like substance by number of MCF-7 cells in the laminated cell culture system; format: cell-based; settings: laminated cell culture system (MCF-7 + rat primary hepatocytes + rat vascular endothelial cells), 0.1 μg/ml, 14 days; compared with MCF-7 only and monolayer hepatocytes + MCF-7
Protocol: 40,000 of estrogen-like substance detection cells (MCF-7) were inoculated on a 12-well microplate and cultured for 7 days under the conditions of 37° C. and 5% CO2 to prepare an MCF-7 cell layer.
The carrier for cell culture prepared in Example 1 was adhered to bottom of a 20-mm petri dish (FALCON, No. 2163) with a small amount of sterilized water, and 40,000 cells of rat primary hepatocytes (collected by the method described in “Techniques of Tissue Culture, Second edition”, Ed. by Japan Tissue Culture Association, Asakura Publishing, p. 135) were inoculated on the carrier for cell culture and cultured for 24 hours under the conditions of 37° C. and 5% CO2. In the same manner, 20,000 cells of rat vascular endothelial cells A-10 (Dainippon Pharmaceutical Co., Ltd.) were inoculated on the carrier for cell culture prepared in Example 1 and cultured for 72 hours under the conditions of 37° C. and 5% CO2.
The rat primary hepatocyte cell culture obtained was carefully placed on the MCF-7 cell layer on the 12-well microplate so that the side of the growth of the rat primary hepatocyte was on the side of the MCF-7 cells, and cultured for 24 hours under the conditions of 37° C. and 5% CO2. […]

rat uterus = settings: in vivo; cited from earlier work

| SMILES | amount of AST released into the medium (rat primary hepatocytes; laminated cell culture (rat primary hepatocytes + rat vascular endothelial cells A-10)) | amount of AST released into the medium (rat primary hepatocytes; primary hepatocytes cultured as monolayer culture) | number of MCF-7 cells (MCF-7 cells) | rat uterus proliferation test result (rat uterus) |
| --- | --- | --- | --- | --- |
| CN(C)CCCN1c2ccccc2Sc2ccc(Cl)cc21 [chloropramazine] | increase in the amount of AST was observed | AST was not detected | – | – |
| CC(C)c1cc(C(C)C)c2ccccc2c1 [2,4-diisopropylnaphthalene] | – | – | maximum value | positive |
